Test results as given in ChEMBL document CHEMBL1129641 (J Med Chem, 1996).

What was measured:
[1] = molecular target: T1, Thromboxane A2 receptor (Homo sapiens) (UniProt P21731); experiment: Binding affinity for human Platelet Thromboxane A2 / Prostaglandin (TP), by radioligand competition binding assays using [3H]-SQ 29548 as radioligand. PR = potency ratio relative to TMQ
T1 sequence (whole entry): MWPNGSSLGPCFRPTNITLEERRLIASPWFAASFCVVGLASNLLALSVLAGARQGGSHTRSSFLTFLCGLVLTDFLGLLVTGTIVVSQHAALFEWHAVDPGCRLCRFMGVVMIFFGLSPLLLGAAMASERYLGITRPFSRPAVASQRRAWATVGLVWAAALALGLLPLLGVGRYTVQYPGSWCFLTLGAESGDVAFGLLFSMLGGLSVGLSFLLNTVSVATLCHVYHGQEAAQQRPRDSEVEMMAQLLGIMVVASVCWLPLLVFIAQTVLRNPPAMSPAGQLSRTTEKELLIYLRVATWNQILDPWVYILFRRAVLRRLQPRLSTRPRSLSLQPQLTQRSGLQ

[2] = molecular target: T2, Beta-2 adrenergic receptor (Homo sapiens, UniProt P07550); details: CHO
Target sequence in this assay (P07550 whole entry, looked up): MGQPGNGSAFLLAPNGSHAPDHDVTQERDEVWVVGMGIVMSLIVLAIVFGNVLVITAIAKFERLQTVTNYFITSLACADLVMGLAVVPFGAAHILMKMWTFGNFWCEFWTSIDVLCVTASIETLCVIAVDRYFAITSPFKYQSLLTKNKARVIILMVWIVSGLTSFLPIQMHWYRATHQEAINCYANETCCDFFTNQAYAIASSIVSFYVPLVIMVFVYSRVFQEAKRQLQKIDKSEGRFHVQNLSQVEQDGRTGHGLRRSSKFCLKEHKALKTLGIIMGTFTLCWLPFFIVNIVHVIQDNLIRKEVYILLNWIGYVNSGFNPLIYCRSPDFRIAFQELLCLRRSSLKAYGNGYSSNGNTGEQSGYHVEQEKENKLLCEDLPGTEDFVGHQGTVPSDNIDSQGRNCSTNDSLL
Description: Binding affinity for human beta-2 Adrenoceptor (AR) expressed in CHO cells by radioligand competition binding assays using [125I]-iodocyanopindolol (ICYP); PR = potency ratio relative to TMQ

Thromboxane A2 receptor = molecular target: T3, Thromboxane A2 receptor (Homo sapiens, UniProt P21731); experiment: Binding affinity for human Platelet Thromboxane A2 / Prostaglandin (TP), by radioligand competition binding assays using [3H]-SQ 29548 as radioligand
T3 sequence (P21731 whole entry): T1 sequence (whole entry)

[3] = molecular target: T2, Beta-2 adrenergic receptor; experiment: Binding affinity for human Beta-2 adrenergic receptor expressed in CHO cells by radioligand competition binding assays using [125I]iodocyanopindolol (ICYP); type: cell-based
Target sequence in this assay (P07550 whole entry): as the sequence (P07550 whole entry, looked up) above

Row | SMILES | PR [1] | PR [2] | Ki (Thromboxane A2 receptor) [µM] | Ki [3] [µM]
1 | COc1cc(C[C@@H]2NCCc3cc(O)c(O)cc32)cc(OC)c1OC | 1 | 1 | – | –
2 | COc1c(I)cc(CC2NCCc3cc(O)c(O)cc32)cc1I (stereo not drawn) | 3.5 | 21 | – | –
3 | Nc1ccc(CC2NCCc3cc(O)c(O)cc32)cc1I (stereo not drawn) | 0.16 | 6.8 | 1 | 0.00646
4 | Nc1c(I)cc(CC2NCCc3cc(O)c(O)cc32)cc1I (stereo not drawn) | 0.87 | 28 | – | –
5 | Oc1cc2c(cc1O)C(Cc1cc(C(F)(F)F)cc(C(F)(F)F)c1)NCC2 (stereo not drawn) | 0.002 | 0.01 | – | –
6 | O=C(Nc1ccc(CC2NCCc3cc(O)c(O)cc32)cc1I)c1ccccc1 (stereo not drawn) | 0.03 | 22 | – | –
7 | CC(=O)Nc1ccc(CC2NCCc3cc(O)c(O)cc32)cc1I (stereo not drawn) | 0.11 | 5.6 | – | –
8 | Oc1cc2c(cc1O)C(Cc1cc(I)c(I)c(I)c1)NCC2 (stereo not drawn) | 0.003 | 29 | – | –
